Test results from patent US7807679B2, “Piperazine derivatives and their use in controlling pests” (Syngenta Crop Protection, Inc., priority 2004, dated 2010).

Columns and labels:
[1] = tested on: Myzus persicae (Green Peach Aphid); assay: Myzus persicae sunflower leaf disc spray test; format: in vivo; settings: foliar, 144 h, 200 ppm sprayed on sunflower leaf discs, aphid population of mixed ages, mortality after 6 DAT
Method: Sunflower leaf discs were placed on agar in a 24-well microtiter plate and sprayed with test solutions at an application rate of 200 ppm. After drying, the leaf discs were infested with an aphid population of mixed ages. After an incubation period of 6 DAT, samples were checked for mortality. The following compounds gave at least 80% control of Myzus persicae: • I-3, I-26, I-29, […], I-30, I-49, I-52, I-53, I-72, I-75, III-49, V-49, XXIV-46, XXIV-90 and XXIV-94.

[2] = tested on: Spodoptera littoralis (Egyptian Cotton Leafworm); assay: Spodoptera littoralis cotton leaf disc spray test; format: in vivo; settings: foliar, 72 h, 200 ppm sprayed on cotton leaf discs, 5 L1 larvae, mortality, repellent effect, feeding behaviour, growth regulation 3 days after treatment
Description: Spodoptera littoralis (Egyptian Cotton Leafworm)
Cotton leaf discs were placed on agar in a 24-well microtiter plate and sprayed with test solutions at an application rate of 200 ppm. After drying, the leaf discs were infested with 5 L1 larvae. The samples were checked for mortality, repellent effect, feeding behaviour, and growth regulation 3 days after treatment (DAT). The following compounds gave at least 80% control of Spodoptera littoralis: • I-3, I-26, I-29, I-30, I-49, I-52, I-53, I-75, I-417, I-532, I-578, I-785, I-854, I-877, II-49, III-49, V-49, XII-49, XIV-26, XV-26, XXIV-2, XXIV-46, XXIV-90, XXIV-93, XXIV-94, XXV-26 and XXV-49.

[3] = tested on: Heliothis virescens (Tobacco Budworm); assay: Heliothis virescens egg test on artificial diet; format: in vivo; settings: 96 h, 200 ppm by pipetting, eggs (0-24 h old) on artificial diet, egg mortality, larval mortality, growth regulation after 4 days
Method: Eggs (0-24 h old) were placed in 24-well microtiter plate on artificial diet and treated with test solutions at an application rate of 200 ppm by pipetting. After an incubation period of 4 days, samples were checked for egg mortality, larval mortality, and growth regulation. The following compounds gave at least 80% control of Heliothis virescen: • I-3, I-6, I-7, I-26, I-29, I-30, I-47, I-49, I-52, I-53, I-72, I-75, I-417, I-532, I-578, I-785, I-854, I-877, III-49, V-49, XII-49, XIV-26, XIV-49, XV-26, XVI-26, XVII-26, XXIV-2, XXIV-46, XXIV-90, XXIV-93, XXIV-94, XXV-2, XXV-26, XXV-49 and XXV-68.

[4] = tested on: Aedes aegypti (Yellow Fever Mosquito); assay: Aedes aegypti larvae test in microtiter plates; format: in vivo; settings: 48 h, larvae (L2) with nutrition mixture, mortality and growth inhibition 2 days later
Description: 10-15 Aedes larvae (L2) together with a nutrition mixture are placed in 96-well microtiter plates. Test solutions at an application rate of 2 ppm are pipetted into the wells. 2 days later, insects were checked for mortality and growth inhibition. The following compounds gave at least 80% control of Aedes aegypti • I-3, I-26, I-29, I-30, I-49, I-52, I-53, I-72, I-75, I-76, III-49, III-118, XIV-26, XV-26, XXIV-2, XXIV-46, XXIV-90, XXIV-93, XXIV-94 and XXV-68.

melting point [°C] | SMILES | pest or weed control at 200 ppm [1] [%] | pest or weed control at 200 ppm [2] [%] | pest or weed control at 200 ppm [3] [%] | pest or weed control at 2 ppm [4] [%]
 | O=C(Nc1ccccc1N1CCN(C/C=C/c2ccc(Cl)cc2)CC1)c1ccnc(Cl)c1 [Compound I-3, 2-chloro-N-(2-{4-[(E)-3-(4-chloro-phenyl)-allyl]-piperazin-1-yl}-phenyl)-isonicotinamide] | ≥ 80 | ≥ 80 | ≥ 80 | ≥ 80
 | O=C(Nc1ccccc1N1CCN(C/C=C/c2ccc(C(F)(F)F)cc2)CC1)c1ccnc(Cl)c1 [Compound I-6, 2-chloro-N-(2-{4-[(E)-3-(4-trifluoromethyl-phenyl)-allyl]-piperazin-1-yl}-phenyl)-isonicotinamide] |  |  | ≥ 80 | 
 | O=C(Nc1ccccc1N1CCN(C/C=C/c2ccc(OC(F)(F)F)cc2)CC1)c1ccnc(Cl)c1 [Compound I-7, 2-chloro-N-(2-{4-[(E)-3-(4-trifluoromethoxy-phenyl)-allyl]-piperazin-1-yl}-phenyl)-isonicotinamide] |  |  | ≥ 80 | 
 | O=C(Nc1ccc(F)cc1N1CCN(C/C=C/c2ccc(Cl)cc2)CC1)c1ccnc(Cl)c1 [Compound I-26, 2-chloro-N-(4-fluoro-2-{4-[(E)-3-(4-chloro-phenyl)-allyl]-piperazin-1-yl}-phenyl)-isonicotinamide] | ≥ 80 | ≥ 80 | ≥ 80 | ≥ 80
 | O=C(Nc1ccc(F)cc1N1CCN(C/C=C/c2ccc(C(F)(F)F)cc2)CC1)c1ccnc(Cl)c1 [Compound I-29, 2-chloro-N-(4-fluoro-2-{4-[(E)-3-(4-trifluoromethyl-phenyl)-allyl]-piperazin-1-yl}-phenyl)-isonicotinamide] | ≥ 80 | ≥ 80 | ≥ 80 | ≥ 80
 | O=C(Nc1ccc(F)cc1N1CCN(C/C=C/c2ccc(OC(F)(F)F)cc2)CC1)c1ccnc(Cl)c1 [Compound I-30, 2-chloro-N-(4-fluoro-2-{4-[(E)-3-(4-trifluoromethoxy-phenyl)-allyl]-piperazin-1-yl}-phenyl)-isonicotinamide] | ≥ 80 | ≥ 80 | ≥ 80 | ≥ 80
 | O=C(Nc1ccc(Cl)cc1N1CCN(Cc2ccc(Cl)cc2)CC1)c1ccnc(Cl)c1 [Compound I-47, 2-Chloro-N-{4-chloro-2-[4-(4-chloro-benzyl)-piperazin-1-yl}-phenyl)-isonicotinamide] |  |  | ≥ 80 | 
 | O=C(Nc1ccc(Cl)cc1N1CCN(C/C=C/c2ccc(Cl)cc2)CC1)c1ccnc(Cl)c1 [Compound I-49, 2-chloro-N-(4-chloro-2-{4-[(E)-3-(4-chloro-phenyl)-allyl]-piperazin-1-yl}-phenyl)-isonicotinamide] | ≥ 80 | ≥ 80 | ≥ 80 | ≥ 80
 | O=C(Nc1ccc(Cl)cc1N1CCN(C/C=C/c2ccc(C(F)(F)F)cc2)CC1)c1ccnc(Cl)c1 [Compound I-52, 2-chloro-N-(4-chloro-2-{4-[(E)-3-(4-trifluoromethyl-phenyl)-allyl]-piperazin-1-yl}-phenyl)-isonicotinamide] | ≥ 80 | ≥ 80 | ≥ 80 | ≥ 80
 | O=C(Nc1ccc(Cl)cc1N1CCN(C/C=C/c2ccc(OC(F)(F)F)cc2)CC1)c1ccnc(Cl)c1 [Compound I-53, 2-chloro-N-(4-chloro-2-{4-[(E)-3-(4-trifluoromethoxy-phenyl)-allyl]-piperazin-1-yl}-phenyl)-isonicotinamide] | ≥ 80 | ≥ 80 | ≥ 80 | ≥ 80
 | O=C(Nc1cc(F)ccc1N1CCN(C/C=C/c2ccc(Cl)cc2)CC1)c1ccnc(Cl)c1 [Compound I-72, 2-chloro-N-(5-fluoro-2-{4-[(E)-3-(4-chloro-phenyl)-allyl]-piperazin-1-yl}-phenyl)-isonicotinamide] | ≥ 80 |  | ≥ 80 | ≥ 80
 | O=C(Nc1cc(F)ccc1N1CCN(C/C=C/c2ccc(C(F)(F)F)cc2)CC1)c1ccnc(Cl)c1 [Compound I-75, 2-chloro-N-(5-fluoro-2-{4-[(E)-3-(4-trifluoromethyl-phenyl)-allyl]-piperazin-1-yl}-phenyl)-isonicotinamide] | ≥ 80 | ≥ 80 | ≥ 80 | ≥ 80
 | O=C(Nc1cc(F)ccc1N1CCN(C/C=C/c2ccc(OC(F)(F)F)cc2)CC1)c1ccnc(Cl)c1 [Compound I-76, 2-chloro-N-(5-fluoro-2-{4-[(E)-3-(4-trifluoromethoxy-phenyl)-allyl]-piperazin-1-yl)-phenyl)-isonicotinamide] |  |  |  | ≥ 80
117 to 120 | CN(C(=O)c1ccnc(Cl)c1)c1ccccc1N1CCN(C/C=C/c2ccc(Cl)cc2)CC1 [Example 2, 2-chloro-N-(2-{4-[(E)-3-(4-chloro-phenyl)-allyl]-piperazin-1-yl}-phenyl)-N-methyl-isonicotinamide] |  |  |  | 
118 to 120 | CN1CCN(c2cc(Cl)ccc2NC(=O)c2ccnc(Cl)c2)CC1 [Example 3, 2-Chloro-N-[4-chloro-2-(4-methyl-piperazin-1-yl)-phenyl]-isonicotinamide] |  |  |  | 
86 to 90 | COCCCNC(=O)Nc1ccc(F)cc1N1CCN(C/C=C/c2ccc(Cl)cc2)CC1 [Example 4, 1-(2-{4-[(E)-3-(4-chloro-phenyl)-allyl]-piperazin-1-yl}-4-fluoro-phenyl)-3-(3-methoxy-propyl)-urea] |  |  |  | 
 | O=C(Nc1cccnc1N1CCN(C/C=C/c2ccc(Cl)cc2)CC1)c1ccnc(Cl)c1 [XXIV-2, 2-chloro-N-(2-{4-[(E)-3-(4-chloro-phenyl)-allyl]-piperazin-1-yl}-pyridin-3-yl)-isonicotinamide] |  | ≥ 80 | ≥ 80 | ≥ 80
 | O=C(Nc1ccc(Cl)nc1N1CCN(C/C=C/c2ccc(Cl)cc2)CC1)c1ccnc(Cl)c1 [XXIV-46, 2-chloro-N-(6-chloro-2-{4-[(E)-3-(4-chloro-phenyl)-allyl]-piperazin-1-yl}-pyridin-3-yl)-isonicotinamide] | ≥ 80 | ≥ 80 | ≥ 80 | ≥ 80
 | O=C(Nc1cc(Cl)cnc1N1CCN(C/C=C/c2ccc(Cl)cc2)CC1)c1ccnc(Cl)c1 [XXIV-90, 2-chloro-N-(5-chloro-2-{4-[(E)-3-(4-chloro-phenyl)-allyl]-piperazin-1-yl}-pyridin-3-yl)-isonicotinamide] | ≥ 80 | ≥ 80 | ≥ 80 | ≥ 80
 | O=C(Nc1cc(Cl)cnc1N1CCN(C/C=C/c2ccc(C(F)(F)F)cc2)CC1)c1ccnc(Cl)c1 [XXIV-93, 2-chloro-N-(5-chloro-2-{4-[(E)-3-(4-trifluoromethyl-phenyl)-allyl]-piperazin-1-yl}-pyridin-3-yl)-isonicotinamide] |  | ≥ 80 | ≥ 80 | ≥ 80
 | O=C(Nc1cc(Cl)cnc1N1CCN(C/C=C/c2ccc(OC(F)(F)F)cc2)CC1)c1ccnc(Cl)c1 [XXIV-94, 2-chloro-N-(5-chloro-2-{4-[(E)-3-(4-trifluoromethoxy-phenyl)-allyl]-piperazin-1-yl}-pyridin-3-yl)-isonicotinamide] | ≥ 80 | ≥ 80 | ≥ 80 | ≥ 80
